Data reported in patent US10711005B2, “Compound I and compound II as well as preparation methods therefor and application thereof” (SHENZHEN UNIVERSITY, priority 2015, dated 2020).

Tests used:
[1] = test system: spleen lymphocytes; experiment: ELISA detection of IFN-γ and IL-12 after stimulation of spleen lymphocytes in vitro by T7-EA; type: cell-based, mice; details: 24 hours, FIGS. 3A-3B
Procedure: The mice are broken the neck to death and soaked in 75% ethanol for 5 minutes, and then placed on the super-clean bench for taking the spleen out with a sterile operation. The spleen is grinded in the 35 mm culture dish containing 4-5 ml murine lymphocyte separating medium. Then obtained cell suspension is transferred to the 15 ml centrifuge tube in which 500 μl RPMI-1640 is gently added along the tube wall for enclosure. After that the centrifuge tube is centrifuged for 30 minutes at 800 G. Then the centrifuged layer containing the lymphocytes is further centrifuged at 250 G for 10 minutes in a centrifuge tube containing 10 ml culture medium. The supernatant is discarded and the cell pellet is dissipated by the culture medium and counted. The spleen leukomonocytes are deposited on the 24-well plate with a cell density of 1×10^6/ml. T7-EA with corresponding concentrations (0, 0.001, 0.01, 0.1, 1, 2, 4, 8, 16, 20, 24 μmol/L) is added into each well and incubated for 24 hours in the cell culture box of 5% CO2 and saturated humidity at 37° C. The supernatant is collected on the second day and tested according to the operation manual of the ELISA kit. The supernatants are collected after stimulating the spleen lymphocytes with T7-EA of different concentrations for 24 hours, and the ELISA test results are shown in FIGS. 3A-3B.

[2] = test system: spleen lymphocytes; experiment: Lymphocyte proliferation experiment (CCK8); type: cell-based, mice; details: 24 hours; for proliferation of the lymphocytes: CCK8, FIG. 4
Procedure: The activation and proliferation abilities of T7-EA on the lymphocytes are detected. The mice are broken the neck to death and soaked in 75% ethanol, and then placed on the super-clean bench for taking the spleen out with a sterile operation. The spleen is grinded in the 35 mm culture dish containing 4-5 ml murine lymphocyte separating medium. Then obtained cell suspension is transferred to the 15 ml centrifuge tube in which 500 μl RPMI-1640 is gently added along the tube wall for enclosure. After that the centrifuge tube is centrifuged for 30 minutes at 800 G. Then the centrifuged layer containing the lymphocytes is further centrifuged at 250 G for 10 minutes in a centrifuge tube containing 10 ml culture medium. The supernatant is discarded and the cell pellet is dissipated by the culture medium and counted. The spleen leukomonocytes are deposited on the 96-well plate with a cell density of 2×10^5/each well. T7-EA with corresponding concentrations (0, 0.001, 0.01, 0.1, 1, 2, 4, 8, 16, 20, 24 μmol/L) is added onto the 96-well plate and incubated for 24 hours in the cell culture box of 5% CO2 and saturated humidity at 37° C. The effect of the T7-EA on the proliferation of the lymphocytes is detected by CCK8 after the 24 hours incubation according to the operation manual of the CCK8 kits, and the results are shown in FIG. 4. […] When the T7-EA has a concentration of 4 μmol/L, the relative proliferation rate is about 50%.

[3] = test system: murine melanoma cell line B16f10; experiment: Anti tumor experiment of T7-EA in vivo (melanoma-bearing mice); set-up: species or system BALB/c mice; details: T7-EA 10 mg/Kg once every three days for 2 weeks; vs control group, T7 group and EA group (P<0.01), FIG. 5
Source text: The used materials comprise animal and cell strain BALB/c mice, female, 5-6 weeks old, provided by the Guangdong Medical Laboratory Animal Center; and murine melanoma cell line B16f10 purchased from Shanghai ATCC Cell Bank.
24 4-5 weeks old female BALB/c mice are loaded with 5×10^5 tumor cells/each one after 1 weeks of quarantine at SPF level in an animal room. The mice bearing tumors are randomly divided into 75% ethanol control group, T7 group, EA group and T7-EA group, when the diameter of the tumor reaches 5 mm. The corresponding drugs are given to each group with a dosage of T7-EA 10 mg/Kg, T7 5 mg/kg, EA 12.5 mg/kg once every three days for 2 weeks. During the treatment, the tumor growth is observed by measuring the tumor size every three days. The tumor surface area is calculated according to the following formula: S=tab (wherein a represents the long diameter, while b represents the short diameter). The 24 mice are loaded with 5×10^5 tumor cells/each one after 7 days of quarantine at SPF level in an animal room. The mice bearing tumors are randomly divided into 75% ethanol control group, T7 group, EA group and T7-EA group, when the diameter of the tumor reaches 5 mm. The corresponding drugs are given to each group once every three days for 2 weeks, and the tumor size is measured every three days.

[4] = test system: B16f10 melanoma cells; experiment: CTL experiment (LDH method), spleen lymphocytes of treated mice against B16f10; type: in vivo; details: effector:target 50:1, 4 hours, after two weeks of administration; vs control, T7 and EA groups (P<0.05), FIG. 6
Procedure: The activity of cytotoxic T lymphocyte (CTL) is determined by the method of Lactic dehydrogenase (LDH) with CytoTox96Promega kits. The mice in the experimental group are broken the neck to death. The spleen lymphocytes are taken as the effector cells while the B16f10 melanoma cells are used as the target cells. The effector cells and the target cells are mixed up with a ratio of 50:1 and cultured for 4 hours. The specific operation steps can be implemented according to the operation manual, while the kill rate can calculated as follows: the killing rate (%)=(OD value of the experimental group−pontaneous OD value of the effector cells−pontaneous OD value of the target cells)/(Maximum OD value of the target cells−pontaneous OD value of the target cells)×100%. The mice in the experimental group are broken the neck to death after two weeks of administration. The spleen lymphocytes are taken as the effector cells while the B16f10 melanoma cells are used as the target cells. The effector cells and the target cells are spread onto 96-well U-shape plate according to a ratio of 50:1 and cultured together for 4 hours.

[5] = test system: spleen lymphocytes; experiment: ELISA detection of cytokines IFN-γ and IL-12 generated by spleen lymphocytes after stimulation of T7-EA; type: cell-based, mice; details: 24 hours
Procedure: (§1) The mice are broken the neck to death and soaked in 75% ethanol, and then placed on the super-clean bench for taking the spleen out with a sterile operation. The spleen is grinded in the 35 mm culture dish containing 4-5 ml Mouse1×lymphocyte separating medium. Then separating medium suspended with spleen cells is transferred to the 15 ml centrifuge tube and enclosed with 500 μl RPMI-1640, After that the centrifuge tube is centrifuged at room temperature for 30 minutes at 800 G. Then the middle buffy coat is placed into a centrifuge tube containing 10 ml culture medium for being overthrown and washed. After that, the centrifuge tube is further centrifuged at 250 G for 10 minutes at room temperature. The supernatant is discarded and the cell pellet is dissipated by the culture medium and counted. The spleen leukomonocytes are deposited on the 24-well plate with a final cell density of 1×10^6/ml. T7-EA with corresponding concentrations (0, 0.01, 0.1, 0.5, 1, 2, 4, 8, 16, 20, 24 μmol/L) is added and incubated for 24 hours in the cell culture box. The supernatant is collected on the second day and tested according to the operation manual of the ELISA kit. […] When the T7-EA has a concentration ≤4 μmol/L, better effects can be obtained. Accordingly, 4 μmol/L is the effective concentration of the T7-EA.

[6] = test system: spleen lymphocytes; experiment: ELISA detection of cytokines IFN-γ and IL-12 generated by spleen lymphocytes after stimulation of T7-EA-ROR1; type: cell-based, murine; details: final T7-EA concentration 4 μmol/L, T7-EA:ROR1 molar ratio 1:1, FIGS. 10A-10B
Procedure: as §1, with “T7-EA. […]” for “T7-EA.”

[7] = test system: protein of mammary cancer 4T1 cells; experiment: Whole-cell antibody detection (serum IgG ELISA); type: in vivo, mice; details: blood collected sixth day after each of 4 immunotherapies, FIG. 12
Procedure: The protein of mammary cancer 4T1 cells is extracted and the concentration of which is also measured in accordance with the operation manual of the BCA protein quantitative kits. The extracted protein is used as the envelope antigen. The venous blood of mice is collected sixth days after each immunotherapy, and its supernatant is collected for 4 times. The serum antibody is measured in accordance with the operation manual of the ELISA kit.

[8] = test system: dendritic cells derived from bone marrow cells; details: in vitro; cited from earlier work
[9] = test system: lymphocyte; details: cited from earlier work
[10] = higher concentration (>4 μmol/L)
[11] = lower concentration (≤4 μmol/L)

SMILES	ability for activating lymphocytes (generation of IFN-γ and IL-12) [1, 10]	ability for activating lymphocytes (generation of IFN-γ and IL-12) [1, 11]	relative proliferation rate ([2]; concentration of 4 μmol/L)	lethal effect on the lymphocytes ([2]; higher concentration (>4 μmol/L), CCK8)	proliferation of the lymphocytes [2, 10]	proliferation of the lymphocytes [2, 11]	growth of the tumor (tumor surface area) [3]	immune killing effect (CTL killing rate) [4]	generation of cytokines IFN-γ and IL-12 by lymphocytes ([5]; 0-24 μmol/L, FIGS. 8A-8B)	effective concentration of the T7-EA ([5]; IFN-γ and IL-12 induction)	generation of cytokines IFN-γ and IL-12 by spleen lymphocytes [6]	level of IgG antibody in the mice sera [7]	production of inflammatory mediators TNF-a and IL-12 [8]	production of inflammatory mediators IFN-γ and IL-12 [9]
C=C(CC)C(=O)c1ccc(OCC(=O)NCc2ccc(Cn3c(O)nc4c(N)nc(OCCOC)nc43)cc2)c(Cl)c1Cl [T7-EA]	decreased ability for activating lymphocytes	stronger ability for activating lymphocytes	about 50%	no lethal effect on the lymphocytes	no effect on the proliferation of the lymphocytes	can promote the proliferation of the lymphocytes	significantly inhibited the growth of the tumor	stronger immune killing effect on melanoma	can activate the lymphocytes and induce the lymphocytes to generate cytokines IFN-γ and IL-12	4 µmol/L	can induce the spleen lymphocytes to generate cytokines IFN-γ and IL-12	increases gradually with the increase of immunization times		
COCCOc1nc(N)c2nc(O)n(Cc3ccc(CN)cc3)c2n1 [T7]													inflammatory mediators, such as TNF-a and IL-12 can be produced rapidly	inflammatory mediators, such as IFN-γ and IL-12 can also be produced rapidly
